The values below come from US4185016A, “Pyrrolo benzodiazepine compounds” (priority 1977, dated 1980).

Where two headings read alike, the source gives them in different places.

In general, LD50 refers to the dose expected to kill half of the subjects tested.

One series can be described thus: in vivo. The conditions noted are these: mouse, ip. On the set-up: species or system DD strain male mice. On the procedure:
LD50 values of the compounds of this invention were determined by the use of DD strain male mice having body weight of 18 to 20 g, 5 heads per one group. Each test compound was dissolved into physiological solution of sodium chloride containing 1% dimethyl sulfoxide and administered intraperitoneally to the animals. The dose levels were 20 mg/kg, 16.7 mg/kg, 13.9 mg/kg, 11.6 mg/kg and 9.6 mg/kg. One week after the administration, LD50 was determined.
(§1) The compounds used in the antitumor activity test and the acute toxicity test were the aforementioned novel compounds. The results of tests concerning the compounds of general formula (I) are listed in Table 1, while those concerning the compounds of general formula (II) are listed in Table 2.

For series [1] the following is noted: U.S. Pat. No. 3,361,742 and J. Am. Chem. Soc., 87, 5791-5793 (1965); cited from earlier work.
The conditions of series [2]: U.S. Pat. No. 3,361,742 and J. Am. Chem. Soc., 87, 5791-5793 (1965); cited from earlier work. This is another data set of the same source.
The subject of the next series is Leukaemia P388. It is filed as in vivo, CDF1 male mice. The conditions noted are these: ip.
From the text: CDF1 male mice having body weight of 18 to 20 g, 10 heads per one group, were inoculated with 2×10^5 cells/mouse Leukaemia P388. Twenty four hours after the inoculation, an appointed dose of test compound was intraperitoneally administered to the animals of administration group, after which the administration was repeated for successive 6 days. The survival day numbers of the animals were counted.
Survival time of the animals was expressed by average survival day number.
as §1

Setting [3] is: intraperitoneal, one week after administration, read-out: Acute toxicity LD50.

`COC1Nc2c(ccc(C)c2O)C(=O)N2CCCC12` (centres unmarked) [4, 11] had an LD50 at 168 h in the series “in vivo” of 13.8 mg/kg. Consider `Cc1ccc2c(c1O)NC(O)C1CC(/C=C/C(N)=O)=CN1C2=O` (centres unmarked) [5,10,11,11a-tetrahydro-9,11-dihydroxy-8-methyl-5-oxo-1H-pyrrolo[2,1-C][1,4]-benzodiazepin-2-acrylamide], for which the antitumor activity result in series [1] is reported as “antitumor”. Moreover, in series [2], the antibacterial activity entry is on record as “antibacterial”. In the case of `COC1Nc2c(O)cccc2C(=O)N2CCCC12` (centres unmarked) [5, 13], the “Antitumor activity, Life-prolongation rate” value in the series with Leukaemia P388 (2.5 mg/kg) was 127.0%; in the series with Leukaemia P388 (5 mg/kg) it was 148.0%. Further, the LD50 at 168 h in “in vivo” (setting [3]) amounted to 12.8 mg/kg. Turning to `COc1ccc2c(c1O)NC(OC)C1CCCN1C2=O` (centres unmarked) [15, 6], in the series “in vivo” (setting [3]), the LD50 at 168 h came out at 12.7 mg/kg. Turning to `COC1Nc2c(ccc(C)c2OC(C)=O)C(=O)N2CCCC12` (centres unmarked) [17, 21], the figures for the “Antitumor activity, Life-prolongation rate” value in the series with Leukaemia P388 (2.5 mg/kg) and in the series on Leukaemia P388 (5 mg/kg) were 125.0% and 149.0%, respectively. Also, the LD50 at 168 h in “in vivo” (setting [3]) was 13.9 mg/kg. As for `CC(=O)Oc1c(C)ccc2c1N=CC1CCCN1C2=O` (centres unmarked) [20, 19], the LD50 at 168 h in the series “in vivo” (setting [3]) was 12.8 mg/kg.

With `COC1Nc2c(OC(C)=O)cccc2C(=O)N2CCCC12` (centres unmarked) [24, 33], the results for the “Antitumor activity, Life-prolongation rate” value in the series on Leukaemia P388 (2.5 mg/kg) and with Leukaemia P388 (5 mg/kg) were 121.6% and 143.8%, respectively. Further, the LD50 at 168 h in “in vivo” (setting [3]) worked out at 12.4 mg/kg. Regarding `CCOC1Nc2c(ccc(C)c2O)C(=O)N2CCCC12` (centres unmarked) [Example 7, 2,3,5,10,11,11a-hexahydro-11-ethoxy-9-hydroxy-8-methyl-1H-pyrrolo[2,1-C][1,4]benzodiazepin-5-one], the LD50 at 168 h in the series “in vivo” (setting [3]) was determined as 13.3 mg/kg.

On to `Cc1ccc2c(c1O)N=CC1CCCN1C2=O` (centres unmarked) [Example 8, 2,3,5,11a-tetrahydro-9-hydroxy-8-methyl-1H-pyrrolo[2,1-C][1,4]benzodiazepin-5-one], for which the “Antitumor activity, Life-prolongation rate” value in the series with Leukaemia P388 (2.5 mg/kg) turned out to be 126.7%; with Leukaemia P388 (5 mg/kg), 148.7%. Besides, the LD50 at 168 h in “in vivo” (setting [3]) stood at 13.6 mg/kg.

Consider `O=C1c2cccc(O)c2N=CC2CCCN12` (centres unmarked) [Example 9, 2,3,5,11a-tetrahydro-9-hydroxy-1H-pyrrolo[2,1-C][1,4]benzodiazepin-5-one], for which the LD50 at 168 h in the series “in vivo” (setting [3]) amounted to 13.1 mg/kg. Take `COc1ccc2c(c1O)N=CC1CCCN1C2=O` (centres unmarked) [Example 10, 2,3,5,11a-tetrahydro-9-hydroxy-8-methoxy-1H-pyrrolo[2,1-C][1,4]benzodiazepin-5-one]: the “Antitumor activity, Life-prolongation rate” value in the series on Leukaemia P388 (2.5 mg/kg) was 126.7%; with Leukaemia P388 (5 mg/kg), 145.6%. Also, the LD50 at 168 h in “in vivo” (setting [3]) was 13.3 mg/kg. For the compound `Cc1ccc2c(c1O)NC(O)C1CCCN1C2=O` (centres unmarked) [Example 12, 2,3,5,10,11,11a-hexahydro-9,11-dihydroxy-8-methyl-1H-pyrrolo[2,1-C][1,4]benzodiazepin-5-one], the LD50 at 168 h in “in vivo” (setting [3]) was 12.9 mg/kg.

Consider `O=C1c2cccc(O)c2NC(O)C2CCCN12` (centres unmarked) [Example 14, 2,3,5,10,11,11a-hexahydro-9,11-dihydroxy-1H-pyrrolo[2,1-C][1,4]benzodiazepin-5-one], for which the LD50 at 168 h in “in vivo” (setting [3]) worked out at 12.5 mg/kg.

Take `COc1ccc2c(c1O)NC(O)C1CCCN1C2=O` (centres unmarked) [Example 16, 2,3,5,10,11,11a-hexahydro-9,11-dihydroxy-8-methoxy-1H-pyrrolo[2,1-C][1,4]benzodiazepin-5-one]: the LD50 at 168 h in the series “in vivo” (setting [3]) came to 12.6 mg/kg.

With `CCOC1Nc2c(ccc(C)c2OC(C)=O)C(=O)N2CCCC12` (centres unmarked) [Example 18, 2,3,5,10,11,11a-hexahydro-9-acetoxy-11-ethoxy-8-methyl-1H-pyrrolo[2,1-C][1,4]benzodiazepin-5-one], the LD50 at 168 h in “in vivo” (setting [3]) came out at 12.8 mg/kg.

For `CC(=O)Oc1c(C)ccc2c1NC(O)C1CCCN1C2=O` (centres unmarked) [Example 22, 2,3,5,10,11,11a-hexahydro-9-acetoxy-11-hydroxy-8-methyl-1H-pyrrolo[2,1-C][1,4]benzodiazepin-5-one], in the series “in vivo” (setting [3]), the LD50 at 168 h was determined as 13.5 mg/kg. In the case of `CC(=O)Oc1cccc2c1NC(O)C1CCCN1C2=O` (centres unmarked) [Example 23, 2,3,5,10,11,11a-hexahydro-9-acetoxy-11-hydroxy-1H-pyrrolo[2,1-C][1,4]-benzodiazepin-5-one], the 50% lethal dose (LD50) at 168 h in the series “in vivo” (setting [3]) was found to be 12.7 mg/kg. In the case of `CCOC1Nc2c(O)cccc2C(=O)N2CCCC12` (centres unmarked) [Example 25, 2,3,5,10,11,11a-hexahydro-11-ethoxy-9-hydroxy-1H-pyrrolo[2,1-C][1,4]benzodiazepin-5-one], in “in vivo” (setting [3]), the LD50 at 168 h was found to be 13 mg/kg. For the compound `CCOC1Nc2c(OC(C)=O)cccc2C(=O)N2CCCC12` (centres unmarked) [Example 26, 2,3,5,10,11,11a-hexahydro-9-acetoxy-11-ethoxy-1H-pyrrolo[2,1-C][1,4]benzodiazepin-5-one], the LD50 at 168 h in “in vivo” (setting [3]) worked out at 13.2 mg/kg. Still for that read-out and setting: the same measure for `COc1ccc2c(c1OC(C)=O)NC(O)C1CCCN1C2=O` (centres unmarked) [Example 27, 2,3,5,10,11,11a-hexahydro-9-acetoxy-11-hydroxy-8-methoxy-1H-pyrrolo[2,1-C][1,4]benzodiazepin-5-one]: 12.4 mg/kg; for `COc1ccc2c(c1OC(C)=O)NC(OC)C1CCCN1C2=O` (centres unmarked) [Example 28, 2,3,5,10,11,11a-hexahydro-9-acetoxy-8,11-dimethoxy-1H-pyrrolo[2,1-C][1,4]benzodiazepin-5-one]: 12.3 mg/kg. As for `CCOC1Nc2c(ccc(OC)c2O)C(=O)N2CCCC12` (centres unmarked) [Example 29, 2,3,5,10,11,11a-hexahydro-11-ethoxy-9-hydroxy-8-methoxy-1H-pyrrolo[2,1-C][1,4]benzodiazepin-5-one], the entries for the “Antitumor activity, Life-prolongation rate” value with Leukaemia P388 (2.5 mg/kg) and with Leukaemia P388 (5 mg/kg) were 123.3% and 141.4%, respectively. In addition, the LD50 at 168 h in “in vivo” (setting [3]) was 12.2 mg/kg. With `CCOC1Nc2c(ccc(OC)c2OC(C)=O)C(=O)N2CCCC12` (centres unmarked) [Example 30, 2,3,5,10,11,11a-hexahydro-9-acetoxy-11-ethoxy-8-methoxy-1H-pyrrolo[2,1-C][1,4]benzodiazepin-5-one], the LD50 at 168 h in the series “in vivo” (setting [3]) stood at 12.7 mg/kg. For the compound `CC(=O)Oc1cccc2c1N=CC1CCCN1C2=O` (centres unmarked) [Example 31, 2,3,5,11a-tetrahydro-9-acetoxy-1H-pyrrolo[2,1-C][1,4]benzodiazepin-5-one], in the series “in vivo” (setting [3]), the LD50 at 168 h is 13.4 mg/kg.

As for `COc1ccc2c(c1OC(C)=O)N=CC1CCCN1C2=O` (centres unmarked) [Example 32, 2,3,5,11a-tetrahydro-9-acetoxy-8-methoxy-1H-pyrrolo[2,1-C][1,4]benzodiazepin-5-one], the LD50 at 168 h in the series “in vivo” (setting [3]) came to 13.7 mg/kg.
